Consider six compounds from paper PMC5797111, “Molecular and Functional Characterization of pheromone binding protein 1 from the Oriental Fruit Moth, Grapholita molesta (Busck)” (Scientific Reports, 2018).

Molecules are shown by their SMILES.

What is called Ki is a measure of affinity in units of concentration, obtained from inhibition or displacement.

For test [1], the target named is T1, GmolPBP1 (Grapholita molesta, UniProt A0A2R4SBD6). In words: 1-NPN fluorescence binding (titration, Scatchard plot). As to conditions: 2 μM GmolPBP1 in 20 mM Tris-HCl pH 7.4, 1-NPN 2–16 μM; read-out: dissociation constant of the GmolPBP1/1-NPN complex. As for the experimental part: (§1) To understand the binding properties of the GmolPBP1 with four sex pheromone components of G. molesta and the Codlemone of C. pomonella. We expressed and purified the protein (Figure S1). Then, a competitive binding assay was performed with 1-NPN as the fluorescence probe. The probe was excited at 337 nm and emission spectra were recorded between 370 and 500 nm. The fluorescent intensity of the 1-NPN alone was fairly low, then a strong blue shift, and peaked at about 410 nm with the presence of GmolPBP1. The intensity of this peak was used to determine the dissociation constant of the GmolPBP1/1-NPN complex.
T1 sequence (A0A2R4SBD6 entry or part of it): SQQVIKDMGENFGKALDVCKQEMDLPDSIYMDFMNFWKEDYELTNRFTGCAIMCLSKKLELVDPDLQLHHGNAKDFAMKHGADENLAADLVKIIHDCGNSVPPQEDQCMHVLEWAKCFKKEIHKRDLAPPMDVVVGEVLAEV
Emission fluorescence spectra were performed on an F-4600 fluorescence Spectrophotometer (Hitachi, Japan) in a 1 cm light path quartz cuvette with 10 nm slit width for both excitation and emission. The excitation wavelength was set at 337 nm and emission spectra were recorded between 370 and 500 nm. […] The fluorescence intensities at the maximum fluorescence emission between 370 and 500 nm were plotted against the concentrations of added 1-NPN. […] The concentrations of bound 1-NPN were evaluated from the values of fluorescence intensity assuming that the protein was 100% active with a stoichiometry of 1:1 (protein: ligand) at saturation. […]

For test [2], the target named is T1, GmolPBP1. Kind of test: Fluorescence competitive binding assay with 1-NPN as probe. As to conditions: for IC50 / Ki: 1-NPN and GmolPBP1 both at 2 μM; for IC50 / binding affinity to GmolPBP1 (in words): ligands 1 to 10 μM; for IC50: read-out: IC50 (ligand concentration displacing half of the initial fluorescence intensity of the GmolPBP1/1-NPN complex); for Ki: calculated from the IC50 value, read-out: Ki (dissociation constant); for binding affinity to GmolPBP1 (in words): displacement of 1-NPN. As for the experimental part: as §1
The displacement of 1-NPN by different sex pheromone components was measured for GmolPBP1 in the competitive binding assy. These ligands included the four sex pheromone components of G. molesta (Z)-8-dodecenyl acetate, (E)-8-dodecenyl acetate, (Z)-8-dodecenyl alcohol and 1-dodecanol as well as the C. pomonella Codlemone. […] The dissociation constants for these three compounds are 1.73 ± 0.31, 2.25 ± 0.63 and 1.88 ± 0.25 μM, respectively.
Emission fluorescence spectra were performed on an F-4600 fluorescence Spectrophotometer (Hitachi, Japan) in a 1 cm light path quartz cuvette with 10 nm slit width for both excitation and emission. The excitation wavelength was set at 337 nm and emission spectra were recorded between 370 and 500 nm. The fluorescent probe N-phenyl-1-naphthylamine (1-NPN) and the ligands used in the binding assay were dissolved in spectrophotometric-grade methanol to yield a 1-mM stock solution (for the sources of these chemicals, see Table S1). To determine the dissociation constant between 1-NPN and GmolPBP1, 2 μM GmolPBP1 dissolved in 20 mM Tris-HCl pH 7.4 was titrated with 1 mM 1-NPN to final concentrations of 2–16 μM. The fluorescence intensities at the maximum fluorescence emission between 370 and 500 nm were plotted against the concentrations of added 1-NPN. The curve was linearized using Scatchard plots. The concentrations of bound 1-NPN were evaluated from the values of fluorescence intensity assuming that the protein was 100% active with a stoichiometry of 1:1 (protein: ligand) at saturation. The affinities of the selected ligands were measured by competitive binding assays by adding the ligands from 1 to 10 μM into the 1-NPN/GmolPBP1 solution (both at 2 μM). The emission spectra were recorded between 370 and 500 nm and the maximum fluorescence intensities were plotted against the ligand concentrations after normalization relative to the intensity at zero ligand. For these competitor ligands, the dissociation constants were computed from the corresponding IC50 values using the quation: Ki = [IC50]/(1 + [1-NPN]/K1-NPN), where [1-NPN] is the free concentration of 1-NPN and K1-NPN is the dissociation constant of the protein complex/1-NPN. All values reported were collected in three independent measurements.

A further test addresses GmolPBP2. The arrangement: method as in doi:10.1016/S2095-3119(13)60686-3. To be noted: cited from earlier work.
In a further test the test system is CpomPBP1. More on the design: method as in PMID 27491022, PMID 27709920. To be noted: cited from earlier work.
The test system of another test is CpomPBP2. The arrangement: method as in PMID 27491022, PMID 27709920. To be noted: cited from earlier work.
The next test concerns male G. molesta. The arrangement: method as in earlier work. To be noted: added to blend of (Z)-8-dodecenyl acetate (85.5%), (E)-8-dodecenyl acetate (5.5%) and (Z)-8-dodecenyl alcohol (9%); cited from earlier work.

Consider `c1ccc(Nc2cccc3ccccc23)cc1` [1-NPN, N-phenyl-1-naphthylamine], for which, on GmolPBP1 [1], the Kd stood at 2410 ± 250 nM.

Consider `CCCCCCCCCCCCO` [1-dodecanol], for which, at GmolPBP1 [2], the IC50 is 3200 ± 890 nM, the Ki was 2250 ± 630 nM and the “binding affinity to GmolPBP1 (in words)” value is given as “strong affinity”.

As for `CCC/C=C/CCCCCCCOC(C)=O` [(E)-8-dodecenyl acetate], the “binding affinity to GmolPBP1 (in words)” value on GmolPBP1 [2] is given as “could not displace half of the total 1-NPN”. Moreover, the Ki on GmolPBP2 was 1100 ± 50 nM.

On to `CCC/C=C\CCCCCCCOC(C)=O` [(Z)-8-dodecenyl acetate], for which the “binding affinity to GmolPBP1 (in words)” value at GmolPBP1 [2] is given as “could not displace half of the total 1-NPN”. In addition, the Ki on GmolPBP2 is 1090 ± 40 nM.

With `CCC/C=C\CCCCCCCO` [(Z)-8-dodecenyl alcohol], at GmolPBP1 [2], the IC50 was 2460 ± 430 nM, the Ki is 1730 ± 310 nM and the “binding affinity to GmolPBP1 (in words)” value is “strong affinity”.

Consider `C/C=C/C=C/CCCCCCCO` [Codlemone, E, E-8, 10-Dodecadienol], for which, at GmolPBP1 [2], the IC50 turned out to be 2660 ± 350 nM, the Ki was 1880 ± 250 nM and the “binding affinity to GmolPBP1 (in words)” value was “strong affinity”. Further, the “affinity to CpomPBP1 (in words)” value in the test on CpomPBP1 was “strong affinity”. For the same compound, in the test on CpomPBP2, the “affinity to CpomPBP2 (in words)” value is “poor affinity”. The “increase of trap catches of male G. molesta over the G. molesta blend alone” value in the test with male G. molesta is given as “two- to three-fold”.
